# What was measured:
# OPRM1 = OPRM1 (Homo sapiens, UniProt P35372); assay: gpcrMAX PathHunter beta-arrestin
# LC:NCI-H23 = tested on: LC:NCI-H23; design: method as in earlier work; details: NCI-60 panel; ref [4],[5],[6],[7]; cited from earlier work
# EDG3 = EDG3 (Homo sapiens, UniProt Q99500); assay: gpcrMAX PathHunter beta-arrestin
# ME:M14 = tested on: ME:M14; design: method as in earlier work; details: NCI-60 panel; ref [4],[5],[6],[7]; cited from earlier work
# CXCR1 = CXCR1 (Homo sapiens, UniProt P25024); assay: gpcrMAX PathHunter beta-arrestin
# HTR5A = HTR5A (Homo sapiens, UniProt P47898); assay: gpcrMAX PathHunter beta-arrestin
# PR:DU-145 = tested on: PR:DU-145; design: method as in earlier work; details: NCI-60 panel; ref [4],[5],[6],[7]; cited from earlier work
# PPYR1 = PPYR1 (Homo sapiens, UniProt P50391); assay: gpcrMAX PathHunter beta-arrestin
# FFAR1 = FFAR1 (Homo sapiens, UniProt O14842); assay: gpcrMAX PathHunter beta-arrestin
# HTR1A = HTR1A (Homo sapiens, UniProt P08908); assay: gpcrMAX PathHunter beta-arrestin
# LE:RPMI-8226 = tested on: LE:RPMI-8226; design: method as in earlier work; details: NCI-60 panel; ref [4],[5],[6],[7]; cited from earlier work
# LC:A549/ATCC = tested on: LC:A549/ATCC; design: method as in earlier work; details: NCI-60 panel; ref [4],[5],[6],[7]; cited from earlier work
# FSHR = FSHR (Homo sapiens, UniProt P23945); assay: gpcrMAX PathHunter beta-arrestin
# CHRM4 = CHRM4 (Homo sapiens, UniProt P08173); assay: gpcrMAX PathHunter beta-arrestin
# CNS:U251 = tested on: CNS:U251; design: method as in earlier work; details: NCI-60 panel; ref [4],[5],[6],[7]; cited from earlier work
# CRHR2 = CRHR2 (Homo sapiens, UniProt Q13324); assay: gpcrMAX PathHunter beta-arrestin
# MC4R = MC4R (Homo sapiens, UniProt P32245); assay: gpcrMAX PathHunter beta-arrestin
# TACR3 = TACR3 (Homo sapiens, UniProt P29371); assay: gpcrMAX PathHunter beta-arrestin
# LE:SR = tested on: LE:SR; design: method as in earlier work; details: NCI-60 panel; ref [4],[5],[6],[7]; cited from earlier work
# GPR120 = GPR120 (Homo sapiens, UniProt Q5NUL3); assay: gpcrMAX PathHunter beta-arrestin
# CCR4 = CCR4 (Homo sapiens, UniProt P51679); assay: gpcrMAX PathHunter beta-arrestin
# AVPR1B = AVPR1B (Homo sapiens, UniProt P47901); assay: gpcrMAX PathHunter beta-arrestin
# TACR1 = TACR1 (Homo sapiens, UniProt P25103); assay: gpcrMAX PathHunter beta-arrestin
# CO:HCC-2998 = tested on: CO:HCC-2998; design: method as in earlier work; details: NCI-60 panel; ref [4],[5],[6],[7]; cited from earlier work
# PTGER2 = PTGER2 (Homo sapiens, UniProt P43116); assay: gpcrMAX PathHunter beta-arrestin
# OXTR = OXTR (Homo sapiens, UniProt P30559); assay: gpcrMAX PathHunter beta-arrestin
# PROKR1 = PROKR1 (Homo sapiens, UniProt Q8TCW9); assay: gpcrMAX PathHunter beta-arrestin
# NTSR1 = NTSR1 (Homo sapiens, UniProt P30989); assay: gpcrMAX PathHunter beta-arrestin
# AVPR1A = AVPR1A (Homo sapiens, UniProt P37288); assay: gpcrMAX PathHunter beta-arrestin
# TBXA2R = TBXA2R (Homo sapiens, UniProt P21731); assay: gpcrMAX PathHunter beta-arrestin
# NMU1R = NMU1R (Homo sapiens, UniProt Q9HB89); assay: gpcrMAX PathHunter beta-arrestin
# P2RY11 = P2RY11 (Homo sapiens, UniProt Q96G91); assay: gpcrMAX PathHunter beta-arrestin
# PTAFR = PTAFR (Homo sapiens, UniProt P25105); assay: gpcrMAX PathHunter beta-arrestin
# ME:SK-MEL-5 = tested on: ME:SK-MEL-5; design: method as in earlier work; details: NCI-60 panel; ref [4],[5],[6],[7]; cited from earlier work
# CCR1 = CCR1 (Homo sapiens, UniProt P32246); assay: gpcrMAX PathHunter beta-arrestin
# GALR1 = GALR1 (Homo sapiens, UniProt P47211); assay: gpcrMAX PathHunter beta-arrestin
# PTGER3 = PTGER3 (Homo sapiens, UniProt P43115); assay: gpcrMAX PathHunter beta-arrestin
# EBI2 = EBI2 (Homo sapiens, UniProt P32249); assay: gpcrMAX PathHunter beta-arrestin
# PTGER4 = PTGER4 (Homo sapiens, UniProt P35408); assay: gpcrMAX PathHunter beta-arrestin
# UTR2 = UTR2 (Homo sapiens, UniProt Q9UKP6); assay: gpcrMAX PathHunter beta-arrestin
# Chain of CXCR1 (P25024 whole entry): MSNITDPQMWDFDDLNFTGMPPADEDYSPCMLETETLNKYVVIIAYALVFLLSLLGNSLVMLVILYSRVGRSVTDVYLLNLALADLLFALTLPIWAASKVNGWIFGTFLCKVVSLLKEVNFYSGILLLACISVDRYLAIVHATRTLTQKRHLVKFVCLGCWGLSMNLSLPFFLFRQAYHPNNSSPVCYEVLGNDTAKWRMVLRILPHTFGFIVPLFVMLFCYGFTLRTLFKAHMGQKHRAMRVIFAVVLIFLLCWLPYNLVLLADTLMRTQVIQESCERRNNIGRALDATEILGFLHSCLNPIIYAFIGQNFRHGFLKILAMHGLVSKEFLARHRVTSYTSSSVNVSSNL
# Chain of HTR5A (P47898 whole entry): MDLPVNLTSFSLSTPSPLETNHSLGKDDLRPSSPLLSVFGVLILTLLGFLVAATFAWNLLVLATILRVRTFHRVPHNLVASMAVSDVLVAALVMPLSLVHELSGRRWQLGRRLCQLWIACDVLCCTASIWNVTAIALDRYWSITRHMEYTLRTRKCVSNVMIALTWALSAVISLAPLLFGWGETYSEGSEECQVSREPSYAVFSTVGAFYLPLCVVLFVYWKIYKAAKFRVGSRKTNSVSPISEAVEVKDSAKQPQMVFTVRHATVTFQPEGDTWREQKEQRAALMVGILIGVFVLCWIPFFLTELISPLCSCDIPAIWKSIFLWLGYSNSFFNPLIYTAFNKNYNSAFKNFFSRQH
# Chain of CCR4 (P51679 whole entry): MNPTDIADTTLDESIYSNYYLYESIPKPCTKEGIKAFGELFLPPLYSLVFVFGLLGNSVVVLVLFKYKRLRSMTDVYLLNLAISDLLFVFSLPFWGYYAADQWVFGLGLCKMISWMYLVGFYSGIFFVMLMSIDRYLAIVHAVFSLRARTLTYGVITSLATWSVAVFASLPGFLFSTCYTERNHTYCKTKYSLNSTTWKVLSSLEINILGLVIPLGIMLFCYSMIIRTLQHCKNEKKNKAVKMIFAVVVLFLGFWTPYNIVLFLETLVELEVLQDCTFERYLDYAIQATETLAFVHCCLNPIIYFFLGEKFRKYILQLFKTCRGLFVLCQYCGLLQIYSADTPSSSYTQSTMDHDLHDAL
# Chain of NMU1R (Q9HB89 whole entry): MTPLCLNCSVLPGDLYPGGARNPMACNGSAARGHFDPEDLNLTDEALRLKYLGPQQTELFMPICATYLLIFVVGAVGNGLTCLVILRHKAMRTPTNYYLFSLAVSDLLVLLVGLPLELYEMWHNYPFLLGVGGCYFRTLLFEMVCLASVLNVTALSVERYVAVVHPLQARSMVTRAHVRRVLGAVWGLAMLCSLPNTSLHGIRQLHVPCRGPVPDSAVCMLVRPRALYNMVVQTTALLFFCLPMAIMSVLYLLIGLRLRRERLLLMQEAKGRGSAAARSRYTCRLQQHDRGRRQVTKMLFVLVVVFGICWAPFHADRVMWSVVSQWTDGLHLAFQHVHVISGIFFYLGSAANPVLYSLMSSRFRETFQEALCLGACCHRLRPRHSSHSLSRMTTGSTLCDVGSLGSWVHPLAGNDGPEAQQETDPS
# Chain of CHRM4 (P08173 whole entry): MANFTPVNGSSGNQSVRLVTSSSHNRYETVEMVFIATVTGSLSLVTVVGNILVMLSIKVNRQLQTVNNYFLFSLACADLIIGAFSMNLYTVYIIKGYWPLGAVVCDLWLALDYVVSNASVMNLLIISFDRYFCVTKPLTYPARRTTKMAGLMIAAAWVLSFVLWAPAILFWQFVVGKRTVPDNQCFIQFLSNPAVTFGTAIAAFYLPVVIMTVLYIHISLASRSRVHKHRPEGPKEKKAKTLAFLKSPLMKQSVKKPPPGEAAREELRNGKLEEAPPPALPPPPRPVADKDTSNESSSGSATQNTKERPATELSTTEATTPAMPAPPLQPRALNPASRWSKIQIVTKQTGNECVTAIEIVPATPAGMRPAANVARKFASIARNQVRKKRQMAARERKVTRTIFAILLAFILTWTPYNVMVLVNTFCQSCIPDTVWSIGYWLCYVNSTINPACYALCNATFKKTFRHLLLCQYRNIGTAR
# Chain of PTGER2 (P43116 whole entry): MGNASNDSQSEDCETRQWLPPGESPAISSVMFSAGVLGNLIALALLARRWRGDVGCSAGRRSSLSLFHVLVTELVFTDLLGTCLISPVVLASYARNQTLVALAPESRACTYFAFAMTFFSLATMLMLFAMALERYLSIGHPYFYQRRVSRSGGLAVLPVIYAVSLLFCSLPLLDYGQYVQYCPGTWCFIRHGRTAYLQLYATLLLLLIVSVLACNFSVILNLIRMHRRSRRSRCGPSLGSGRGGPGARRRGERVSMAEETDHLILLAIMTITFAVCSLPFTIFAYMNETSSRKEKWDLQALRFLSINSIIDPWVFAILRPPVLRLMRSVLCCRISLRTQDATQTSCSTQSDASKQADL
# Chain of CCR1 (P32246 whole entry): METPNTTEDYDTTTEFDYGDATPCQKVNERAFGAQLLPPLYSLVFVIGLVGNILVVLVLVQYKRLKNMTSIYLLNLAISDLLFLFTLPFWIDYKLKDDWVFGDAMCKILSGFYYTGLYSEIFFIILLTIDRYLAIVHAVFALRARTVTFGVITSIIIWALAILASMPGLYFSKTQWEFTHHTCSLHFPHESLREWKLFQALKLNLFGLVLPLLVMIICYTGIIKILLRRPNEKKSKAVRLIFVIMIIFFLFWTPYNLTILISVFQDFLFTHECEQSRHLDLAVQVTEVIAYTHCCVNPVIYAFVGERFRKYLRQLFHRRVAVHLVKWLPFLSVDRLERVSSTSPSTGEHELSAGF
# Chain of FFAR1 (O14842 whole entry): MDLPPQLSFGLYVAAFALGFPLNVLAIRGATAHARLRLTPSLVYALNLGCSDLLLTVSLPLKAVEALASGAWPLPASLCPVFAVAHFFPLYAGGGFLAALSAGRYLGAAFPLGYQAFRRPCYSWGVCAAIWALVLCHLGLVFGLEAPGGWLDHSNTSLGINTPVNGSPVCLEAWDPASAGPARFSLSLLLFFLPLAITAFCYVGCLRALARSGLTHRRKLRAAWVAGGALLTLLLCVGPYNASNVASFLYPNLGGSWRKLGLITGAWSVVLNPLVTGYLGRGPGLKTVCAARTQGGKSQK
# Chain of HTR1A (P08908 whole entry): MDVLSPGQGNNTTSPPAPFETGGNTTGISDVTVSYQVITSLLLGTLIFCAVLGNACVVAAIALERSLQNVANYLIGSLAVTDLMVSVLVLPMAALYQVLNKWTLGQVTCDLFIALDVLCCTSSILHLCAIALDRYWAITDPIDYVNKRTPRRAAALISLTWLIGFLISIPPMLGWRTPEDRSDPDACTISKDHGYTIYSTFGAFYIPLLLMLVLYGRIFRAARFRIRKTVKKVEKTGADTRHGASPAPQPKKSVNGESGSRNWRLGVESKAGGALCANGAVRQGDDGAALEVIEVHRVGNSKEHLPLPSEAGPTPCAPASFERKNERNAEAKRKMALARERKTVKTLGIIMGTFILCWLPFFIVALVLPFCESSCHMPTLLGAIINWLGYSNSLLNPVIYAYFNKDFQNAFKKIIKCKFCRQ
# Chain of TBXA2R (P21731 whole entry): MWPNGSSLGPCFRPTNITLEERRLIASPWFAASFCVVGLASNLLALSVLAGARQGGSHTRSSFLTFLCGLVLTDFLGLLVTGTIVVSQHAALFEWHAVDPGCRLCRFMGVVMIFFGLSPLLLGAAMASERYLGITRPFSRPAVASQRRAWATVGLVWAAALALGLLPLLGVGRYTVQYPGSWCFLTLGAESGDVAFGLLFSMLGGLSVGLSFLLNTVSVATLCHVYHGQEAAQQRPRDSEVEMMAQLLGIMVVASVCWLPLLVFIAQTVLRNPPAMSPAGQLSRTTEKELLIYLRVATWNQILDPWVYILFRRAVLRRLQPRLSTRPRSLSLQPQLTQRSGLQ
# Chain of PTAFR (P25105 whole entry): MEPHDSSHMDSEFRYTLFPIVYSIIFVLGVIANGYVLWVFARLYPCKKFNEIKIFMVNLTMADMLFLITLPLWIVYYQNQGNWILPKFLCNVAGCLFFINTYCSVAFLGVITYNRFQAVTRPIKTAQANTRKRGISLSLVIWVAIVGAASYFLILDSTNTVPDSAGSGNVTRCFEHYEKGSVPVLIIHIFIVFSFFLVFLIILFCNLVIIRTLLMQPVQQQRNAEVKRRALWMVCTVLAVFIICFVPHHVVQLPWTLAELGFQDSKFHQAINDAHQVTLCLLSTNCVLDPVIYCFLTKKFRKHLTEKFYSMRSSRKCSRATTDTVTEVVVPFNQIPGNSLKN
# Chain of EBI2 (P32249 whole entry): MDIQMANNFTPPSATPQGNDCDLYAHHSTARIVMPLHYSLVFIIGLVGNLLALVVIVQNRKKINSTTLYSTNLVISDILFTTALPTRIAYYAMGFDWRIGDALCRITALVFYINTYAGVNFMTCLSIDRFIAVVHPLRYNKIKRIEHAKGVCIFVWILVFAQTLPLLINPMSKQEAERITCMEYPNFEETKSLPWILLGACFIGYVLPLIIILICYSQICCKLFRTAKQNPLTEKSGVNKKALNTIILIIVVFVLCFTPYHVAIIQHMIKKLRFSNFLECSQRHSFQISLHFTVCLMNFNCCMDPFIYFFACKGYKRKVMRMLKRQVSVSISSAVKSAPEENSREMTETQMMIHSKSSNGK
# Chain of GPR120 (Q5NUL3 whole entry): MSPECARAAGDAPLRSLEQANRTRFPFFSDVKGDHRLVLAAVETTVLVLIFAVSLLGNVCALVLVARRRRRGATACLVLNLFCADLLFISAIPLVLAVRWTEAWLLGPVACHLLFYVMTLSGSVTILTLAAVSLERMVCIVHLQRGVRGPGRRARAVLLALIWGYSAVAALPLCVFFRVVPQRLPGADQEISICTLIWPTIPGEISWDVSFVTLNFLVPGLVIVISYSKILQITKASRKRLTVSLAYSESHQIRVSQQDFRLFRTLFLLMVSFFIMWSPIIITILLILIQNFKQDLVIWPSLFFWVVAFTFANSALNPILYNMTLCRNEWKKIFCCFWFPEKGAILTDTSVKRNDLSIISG
smiles,measurement,setting,value
Cc1c(Cl)cccc1NC(=O)c1sc2nc3c(cc2c1N)C(=O)CCC3 [Compound 1],inhibition at 10 µM,OPRM1,-18%
same,GI50,LC:NCI-H23,169 nM
same,inhibition at 10 µM,EDG3,-2%
same,GI50,ME:M14,71.3 nM
same,inhibition at 10 µM,CXCR1,2%
same,inhibition at 10 µM,HTR5A,2%
same,GI50,PR:DU-145,152 nM
same,inhibition at 10 µM,PPYR1,-18%
same,inhibition at 10 µM,FFAR1,-59%
same,inhibition at 10 µM,HTR1A,3%
same,GI50,LE:RPMI-8226,256 nM
same,GI50,LC:A549/ATCC,63.1 nM
same,inhibition at 10 µM,FSHR,30%
same,inhibition at 10 µM,CHRM4,-10%
same,GI50,CNS:U251,96.2 nM
same,inhibition at 10 µM,CRHR2,8%
same,inhibition at 10 µM,MC4R,-42%
same,inhibition at 10 µM,TACR3,5%
same,GI50,LE:SR,74.2 nM
same,inhibition at 10 µM,GPR120,4%
same,inhibition at 10 µM,CCR4,26%
same,inhibition at 10 µM,AVPR1B,3%
same,inhibition at 10 µM,TACR1,-3%
same,GI50,CO:HCC-2998,213 nM
same,inhibition at 10 µM,PTGER2,-5%
same,inhibition at 10 µM,OXTR,7%
same,inhibition at 10 µM,PROKR1,6%
same,inhibition at 10 µM,NTSR1,12%
same,inhibition at 10 µM,AVPR1A,-12%
same,inhibition at 10 µM,TBXA2R,-1%
same,inhibition at 10 µM,NMU1R,2%
same,inhibition at 10 µM,P2RY11,-6%
same,inhibition at 10 µM,PTAFR,2%
same,GI50,ME:SK-MEL-5,237 nM
same,inhibition at 10 µM,CCR1,-10%
same,inhibition at 10 µM,GALR1,12%
same,inhibition at 10 µM,PTGER3,11%
same,inhibition at 10 µM,EBI2,4%
same,inhibition at 10 µM,PTGER4,7%
same,inhibition at 10 µM,UTR2,10%
